Calls of active or inactive are those of the source. The rule behind the calls is not given here.
Legend:
Type in all cases: cell-based
[1] = molecular target: T1, Nuclear factor erythroid 2-related factor 2 (Mus musculus) (UniProt Q60795); test: Activation of Nrf2 in mouse Heap1c1c7 cells assessed as induction of NAD(P)H:quinone reductase activity at 50 uM relative to control
T1 sequence (whole entry): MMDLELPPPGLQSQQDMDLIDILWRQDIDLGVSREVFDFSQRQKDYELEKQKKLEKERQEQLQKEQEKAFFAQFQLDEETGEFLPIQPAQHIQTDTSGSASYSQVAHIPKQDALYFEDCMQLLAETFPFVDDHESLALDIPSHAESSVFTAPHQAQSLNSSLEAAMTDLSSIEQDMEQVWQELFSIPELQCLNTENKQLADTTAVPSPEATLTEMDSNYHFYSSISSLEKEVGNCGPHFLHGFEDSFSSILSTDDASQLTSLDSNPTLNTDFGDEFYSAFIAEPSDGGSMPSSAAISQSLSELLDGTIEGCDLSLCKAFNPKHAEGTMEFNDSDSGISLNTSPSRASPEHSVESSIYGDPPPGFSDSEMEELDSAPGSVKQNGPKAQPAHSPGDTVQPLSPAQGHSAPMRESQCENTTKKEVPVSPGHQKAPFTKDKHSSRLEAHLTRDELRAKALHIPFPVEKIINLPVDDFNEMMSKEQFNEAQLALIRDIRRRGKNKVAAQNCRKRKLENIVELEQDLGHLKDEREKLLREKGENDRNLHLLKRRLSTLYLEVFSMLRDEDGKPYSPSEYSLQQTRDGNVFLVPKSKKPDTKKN

[2] = molecular target: T1, Nuclear factor erythroid 2-related factor 2 (Mus musculus); test: Activation of Nrf2 in mouse Heap1c1c7 cells assessed as induction of NAD(P)H:quinone reductase activity at 25 uM relative to control
[3] = molecular target: T1, Nuclear factor erythroid 2-related factor 2 (Mus musculus); test: Activation of Nrf2 in mouse Heap1c1c7 cells assessed as induction of NAD(P)H:quinone reductase activity at 100 uM relative to control
[4] = molecular target: T1, Nuclear factor erythroid 2-related factor 2 (Mus musculus); test: Activation of Nrf2 in mouse Heap1c1c7 cells assessed as induction of NAD(P)H:quinone reductase activity at 12.5 uM relative to control
[5] = molecular target: T2, Nuclear factor erythroid 2-related factor 2 (Homo sapiens) (UniProt Q16236); test: Activation of Nrf2 in human BEAS2B cells assessed as upregulation of NQO1 protein expression at 20 uM after 12 hrs by immunoblot analysis
T2 sequence (whole entry): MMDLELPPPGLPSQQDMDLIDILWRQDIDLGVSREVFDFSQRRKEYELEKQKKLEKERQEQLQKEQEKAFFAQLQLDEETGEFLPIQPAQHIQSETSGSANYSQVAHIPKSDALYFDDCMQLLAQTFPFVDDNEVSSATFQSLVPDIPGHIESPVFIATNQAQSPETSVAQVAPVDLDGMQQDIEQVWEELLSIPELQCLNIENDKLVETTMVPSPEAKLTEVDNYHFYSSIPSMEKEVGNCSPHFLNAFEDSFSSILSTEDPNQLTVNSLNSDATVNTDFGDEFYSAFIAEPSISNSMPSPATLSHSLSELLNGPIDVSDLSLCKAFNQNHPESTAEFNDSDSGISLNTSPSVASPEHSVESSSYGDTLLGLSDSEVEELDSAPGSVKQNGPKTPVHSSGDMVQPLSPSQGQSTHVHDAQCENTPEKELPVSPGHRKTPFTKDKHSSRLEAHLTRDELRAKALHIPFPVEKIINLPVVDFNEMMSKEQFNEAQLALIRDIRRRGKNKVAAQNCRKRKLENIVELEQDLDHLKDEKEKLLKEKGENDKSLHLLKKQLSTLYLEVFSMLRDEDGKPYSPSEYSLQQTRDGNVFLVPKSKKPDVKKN

[6] = molecular target: T2, Nuclear factor erythroid 2-related factor 2 (Homo sapiens); test: Activation of Nrf2 in human BEAS2B cells assessed as upregulation of gamma-GCS protein expression at 20 uM after 12 hrs by immunoblot analysis
[7] = molecular target: T2, Nuclear factor erythroid 2-related factor 2 (Homo sapiens); test: Activation of Nrf2 in human BEAS2B cells assessed as upregulation of Nrf2 protein expression at 20 uM after 12 hrs by immunoblot analysis

Question: How did the fold change (FC) [1] turn out when `O=c1c(O)c(-c2ccc(O)cc2)oc2cc(O)cc(O)c12` was run?
Answer: 1.51

Question: How did the fold change (FC) [1] turn out when `CC(C)=CCc1c(O)cc2oc(-c3ccc(O)cc3O)c(/C=C/C(C)C)c(=O)c2c1O` was run?
Answer: 1.86

Question: Which fold change (FC) [1] does the source give for `O=c1cc(-c2ccc(O)c(-c3c(O)cc(O)c4c(=O)cc(-c5ccc(O)cc5)oc34)c2)oc2cc(O)cc(O)c12` here?
Answer: 1.42

Question: For `C/C(=C/Cc1c(O)ccc(C(=O)/C=C/c2ccc(O)cc2O)c1O)CC(=O)/C=C/c1ccc(O)cc1`, which fold change (FC) [2] is on record?
Answer: 1.39

Question: How did the fold change (FC) [3] turn out when `C/C(=C\Cc1c(O)ccc(C(=O)/C=C/c2ccc(O)cc2)c1O)CO` was run?
Answer: 1.43

Question: `COc1cc(/C=C/C(=O)C/C(C)=C\Cc2c(O)ccc(C(=O)/C=C/c3ccc(O)cc3)c2O)ccc1O` was tested. Which fold change (FC) [4] did it give?
Answer: 1.46

Question: `C/C(=C\Cc1c(O)ccc(C(=O)/C=C/c2ccc(O)cc2O)c1O)CO` was tested. Which fold change (FC) [3] did it give?
Answer: 1.61

Question: Which fold change (FC) [3] does the source give for `CC(C)=CCc1c(-c2ccc(O)cc2O)oc2cc(O)cc(O)c2c1=O` here?
Answer: 1.31

Question: Which fold change (FC) [3] does the source give for `CC(C)=CCc1c(O)cc2oc3c(c(=O)c2c1O)C(C=C(C)C)Oc1cc(O)ccc1-3` (stereo unspecified) here?
Answer: 1.31

Question: `C/C(=C/Cc1c(O)ccc(C(=O)/C=C/c2ccc(O)cc2)c1O)CO` was tested. Which fold change (FC) [3] did it give?
Answer: 1.52

Question: For `O=C1c2c(O)cc(O)cc2OC(c2ccc(O)cc2)C1O` (stereo unspecified), which fold change (FC) [3] is on record?
Answer: 1.49

Question: For `CC(C)/C=C/c1c(O)cc2oc(-c3ccc(O)cc3O)c(/C=C/C(C)C)c(=O)c2c1O`, which fold change (FC) [2] is on record?
Answer: 1.4

Question: For `O=C1C[C@@H](c2ccc(O)c(O)c2)Oc2cc(O)cc(O)c21`, which fold change (FC) [1] is on record?
Answer: 1.36

Question: `O=c1c(O)c(-c2ccc(O)c(O)c2)oc2cc(O)cc(O)c12` was tested. Which fold change (FC) [4] did it give?
Answer: 1.36

Question: `COc1ccc([C@@H]2CC(=O)c3c(cc(OC)c(OC)c3OC)O2)cc1OC` was tested. Which fold change (FC) [3] did it give?
Answer: 1.81

Question: With `COc1cc([C@@H]2CC(=O)c3c(O)cc(O)cc3O2)ccc1O` as the molecule, how does the fold change (FC) [1] read?
Answer: 1.51

Question: For `C/C(=C\Cc1c(O)ccc(C(=O)/C=C/c2ccc(O)cc2)c1O)CC(=O)/C=C/c1ccc(O)cc1`, which fold change (FC) [2] is on record?
Answer: 1.57

Question: How did the fold change (FC) [1] turn out when `CC(C)=CCc1c(O)ccc(C(=O)/C=C/c2ccc(O)cc2)c1O` was run?
Answer: 1.69

Question: For `O=C1CC(c2ccc(O)c(O)c2)Oc2cc(O[C@@H]3O[C@H](CO)[C@@H](O)[C@H](O)[C@H]3O)cc(O)c21` (stereo partly specified), which fold change (FC) [3] is on record?
Answer: 1.66

Question: Which fold change (FC) [4] does the source give for `C/C(=C/Cc1c(O)ccc(C(=O)/C=C/c2ccc(O)cc2)c1O)CC(=O)/C=C/c1ccc(O)cc1` here?
Answer: 1.31

Question: For `CC(C)=CCc1c(O)ccc(C(=O)/C=C/c2ccc(O)cc2O)c1O`, which fold change (FC) [3] is on record?
Answer: 1.34

Question: For `COc1cc(/C=C/C(=O)C/C(C)=C/Cc2c(O)ccc(C(=O)/C=C/c3ccc(O)cc3)c2O)ccc1O`, which fold change (FC) [2] is on record?
Answer: 1.49

Question: With `CC(C)(C)c1cc(O)ccc1O` as the molecule, how does the Activity [5] read?
Answer: Active

Question: What about the Activity [6] of the same molecule?
Answer: Active

Question: And the Activity [7]?
Answer: Active

Question: For `CC(C)=CCc1c(O)ccc2c1OC(c1ccc(O)cc1O)CC2=O` (stereo unspecified), which fold change (FC) [3] is on record?
Answer: 1.75

— ChEMBL document CHEMBL4229568, “Discovery of natural flavonoids as activators of Nrf2-mediated defense system: Structure-activity relationship and inhibition of intracellular oxidative insults” (Bioorg Med Chem, 2018)
